ChEMBL document CHEMBL6120981, “Optimisation of a novel series of ENaC inhibitors, leading to the selection of the long-acting inhaled clinical candidate ETD001, a potential new treatment for cystic fibrosis” (Eur J Med Chem, 2025)
Calls of active or inactive are those of the source. The rule behind the calls is not given here.

Legend:
[1] = Inhibition of ENaC in human Primary bronchial epithelial cell; format: cell-based
[2] = Lipophilicity, log D of the compound; format: physicochemical; details: octanol/water
Ovis aries [3] = experiment: (§1) Mucociliary clearance activity in sheep mucociliary clearance model assessed as effective dose administered as inhalation pre-administered for 4 to 6 hrs followed by aerosolized technetium-labeled sulfur colloid (99mTc-Sc , 20 mCi) addition by Scintigraphic imaging based analysis; format: functional; details: time 4-6 hrs
Ovis aries [4] = experiment: as §1, with “assessed as improvement in lung residence time” for “effective dose”; format: functional, organism-based; details: time 4-6 hrs
[5] = Plasma protein binding in rat; format: ADME, cell-free; details: read-out: PPB (converted)
[6] = target: Voltage-dependent L-type calcium channel subunit alpha-1C (Homo sapiens, UniProt Q13936); experiment: Inhibition of Cav1.2 (unknown origin) at 10 uM by automated patch clamp method
[7] = Plasma protein binding in dog; format: ADME, cell-free, Canis lupus familiaris; details: read-out: PPB (converted)
[8] = Drug uptake in male Sprague-Dawley rat Bronchoalveolar lavage assessed as decrease BAL level at 0.3 mg/kg, IT measured after 6 hrs by LC-MS/MS analysis relative to control; format: ADME, organism-based; details: in vivo, other
[9] = Drug uptake in male Sprague-Dawley rat Bronchoalveolar lavage assessed as fold decrease BAL level at 0.3 mg/kg, IT measured upto 6 hrs by LC-MS/MS analysis; format: ADME, organism-based; details: in vivo, other
[10] = target: Voltage-gated inwardly rectifying potassium channel KCNH2 (Homo sapiens, UniProt Q12809); experiment: Inhibition of human ERG at 30 uM by automated patch clamp method; format: toxicity
[11] = Mutagenicity in Salmonella typhimurium strains by Ames test; format: toxicity; details: salmonella enterica subsp. enterica serovar typhimurium
[12] = target: Sodium channel protein type 5 subunit alpha (Homo sapiens, UniProt Q14524); experiment: Inhibition of Nav1.5 (unknown origin) 10 uM by automated patch clamp method
Cytochrome P450 = experiment: Inhibition of CYP450 (unknown origin); format: ADME, protein assay; details: human
[13] = Plasma protein binding in human; format: ADME, cell-free; details: read-out: PPB (converted)
[14] = target: Potassium voltage-gated channel subfamily A member 5 (Homo sapiens) (UniProt P22460); experiment: Inhibition of Kv1.5 (unknown origin) at 10 uM by automated patch clamp method
[15] = Drug uptake in male Sprague-Dawley rat lung at 0.3 mg/kg, IT measured upto 6 hrs by LC-MS/MS analysis; format: ADME, organism-based; details: in vivo, other

Sequence of Voltage-gated inwardly rectifying potassium channel KCNH2 (Q12809 whole entry): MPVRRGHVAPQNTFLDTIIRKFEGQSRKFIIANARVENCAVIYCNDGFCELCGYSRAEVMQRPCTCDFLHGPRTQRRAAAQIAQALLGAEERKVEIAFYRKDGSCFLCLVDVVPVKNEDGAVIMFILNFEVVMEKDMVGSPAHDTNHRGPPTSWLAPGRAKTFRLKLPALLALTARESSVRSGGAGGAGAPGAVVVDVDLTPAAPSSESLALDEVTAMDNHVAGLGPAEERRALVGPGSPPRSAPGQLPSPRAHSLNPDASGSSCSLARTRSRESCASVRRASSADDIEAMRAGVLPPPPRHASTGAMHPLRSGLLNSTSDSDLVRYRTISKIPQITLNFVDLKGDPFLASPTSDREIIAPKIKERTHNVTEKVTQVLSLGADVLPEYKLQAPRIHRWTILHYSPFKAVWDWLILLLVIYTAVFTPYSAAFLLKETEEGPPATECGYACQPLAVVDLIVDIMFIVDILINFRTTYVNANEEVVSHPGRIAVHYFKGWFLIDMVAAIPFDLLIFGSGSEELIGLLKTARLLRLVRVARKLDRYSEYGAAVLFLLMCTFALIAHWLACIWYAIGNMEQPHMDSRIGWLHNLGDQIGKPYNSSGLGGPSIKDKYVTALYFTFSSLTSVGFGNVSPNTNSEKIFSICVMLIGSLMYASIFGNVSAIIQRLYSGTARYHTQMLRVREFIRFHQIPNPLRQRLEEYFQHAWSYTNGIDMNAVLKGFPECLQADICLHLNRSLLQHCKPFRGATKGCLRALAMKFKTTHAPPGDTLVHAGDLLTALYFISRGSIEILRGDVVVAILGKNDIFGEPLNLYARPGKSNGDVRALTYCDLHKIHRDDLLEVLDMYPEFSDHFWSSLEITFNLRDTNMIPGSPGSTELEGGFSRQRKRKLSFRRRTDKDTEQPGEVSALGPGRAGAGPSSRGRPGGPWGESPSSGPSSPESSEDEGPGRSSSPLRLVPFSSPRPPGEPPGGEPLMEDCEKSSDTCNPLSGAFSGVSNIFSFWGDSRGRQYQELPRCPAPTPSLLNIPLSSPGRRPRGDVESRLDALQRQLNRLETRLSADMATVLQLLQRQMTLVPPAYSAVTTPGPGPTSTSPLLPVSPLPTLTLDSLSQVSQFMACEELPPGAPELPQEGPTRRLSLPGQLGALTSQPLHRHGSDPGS
Sequence of Voltage-dependent L-type calcium channel subunit alpha-1C (Q13936 whole entry): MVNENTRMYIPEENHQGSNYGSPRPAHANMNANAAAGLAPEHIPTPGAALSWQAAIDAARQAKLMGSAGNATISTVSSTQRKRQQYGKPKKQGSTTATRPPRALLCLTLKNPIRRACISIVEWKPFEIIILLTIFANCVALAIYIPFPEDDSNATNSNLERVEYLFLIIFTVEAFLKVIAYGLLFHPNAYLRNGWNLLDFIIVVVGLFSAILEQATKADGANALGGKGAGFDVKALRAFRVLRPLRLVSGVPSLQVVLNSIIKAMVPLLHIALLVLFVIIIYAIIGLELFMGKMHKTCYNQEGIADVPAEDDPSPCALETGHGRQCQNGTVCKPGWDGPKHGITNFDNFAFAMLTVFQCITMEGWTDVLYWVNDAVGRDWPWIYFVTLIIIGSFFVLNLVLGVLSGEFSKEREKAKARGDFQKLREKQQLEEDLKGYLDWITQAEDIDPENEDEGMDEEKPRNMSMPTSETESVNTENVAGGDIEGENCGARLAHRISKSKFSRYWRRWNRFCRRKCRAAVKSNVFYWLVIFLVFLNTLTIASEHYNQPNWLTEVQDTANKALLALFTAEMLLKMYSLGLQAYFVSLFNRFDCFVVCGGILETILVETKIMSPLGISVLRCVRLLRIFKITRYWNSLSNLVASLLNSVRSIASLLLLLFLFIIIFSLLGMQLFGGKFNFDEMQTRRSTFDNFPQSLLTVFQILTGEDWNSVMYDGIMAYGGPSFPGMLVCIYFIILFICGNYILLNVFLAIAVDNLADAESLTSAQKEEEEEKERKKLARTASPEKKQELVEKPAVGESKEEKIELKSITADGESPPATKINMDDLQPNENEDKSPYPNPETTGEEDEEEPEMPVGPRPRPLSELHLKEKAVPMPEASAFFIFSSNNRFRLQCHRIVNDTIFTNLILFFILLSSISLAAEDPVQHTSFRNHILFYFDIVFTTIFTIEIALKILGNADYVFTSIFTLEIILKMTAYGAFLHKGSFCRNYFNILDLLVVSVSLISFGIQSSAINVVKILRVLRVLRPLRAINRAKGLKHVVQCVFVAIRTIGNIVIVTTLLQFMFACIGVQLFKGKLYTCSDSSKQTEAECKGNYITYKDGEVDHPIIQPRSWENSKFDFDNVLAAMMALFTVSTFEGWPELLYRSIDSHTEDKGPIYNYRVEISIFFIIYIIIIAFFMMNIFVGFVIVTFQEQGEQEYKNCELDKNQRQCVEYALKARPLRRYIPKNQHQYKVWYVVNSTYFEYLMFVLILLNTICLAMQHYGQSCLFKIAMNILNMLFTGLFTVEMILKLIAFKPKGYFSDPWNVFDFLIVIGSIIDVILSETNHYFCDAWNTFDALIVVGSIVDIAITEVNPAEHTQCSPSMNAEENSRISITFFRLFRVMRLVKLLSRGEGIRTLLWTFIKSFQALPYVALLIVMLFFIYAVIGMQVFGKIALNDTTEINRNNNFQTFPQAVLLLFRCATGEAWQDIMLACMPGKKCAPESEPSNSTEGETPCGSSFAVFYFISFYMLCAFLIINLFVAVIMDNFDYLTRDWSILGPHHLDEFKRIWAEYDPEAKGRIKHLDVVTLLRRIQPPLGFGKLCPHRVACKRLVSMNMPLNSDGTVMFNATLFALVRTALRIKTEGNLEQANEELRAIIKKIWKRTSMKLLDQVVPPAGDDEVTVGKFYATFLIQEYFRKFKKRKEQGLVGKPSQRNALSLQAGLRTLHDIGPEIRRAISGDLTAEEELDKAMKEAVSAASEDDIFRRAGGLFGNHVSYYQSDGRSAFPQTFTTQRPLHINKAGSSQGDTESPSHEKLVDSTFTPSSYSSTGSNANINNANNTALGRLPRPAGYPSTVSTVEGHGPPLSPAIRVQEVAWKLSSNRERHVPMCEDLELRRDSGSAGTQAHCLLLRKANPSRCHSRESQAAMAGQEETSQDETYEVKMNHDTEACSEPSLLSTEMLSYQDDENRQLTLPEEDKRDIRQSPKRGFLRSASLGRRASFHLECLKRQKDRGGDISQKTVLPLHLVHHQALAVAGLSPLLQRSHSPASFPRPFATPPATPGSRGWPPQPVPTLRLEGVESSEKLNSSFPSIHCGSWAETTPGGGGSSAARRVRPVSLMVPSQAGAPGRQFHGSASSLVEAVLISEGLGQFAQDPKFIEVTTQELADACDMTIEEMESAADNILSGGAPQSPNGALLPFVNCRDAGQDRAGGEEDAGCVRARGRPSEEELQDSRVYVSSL
Sequence of Potassium voltage-gated channel subfamily A member 5 (Homo sapiens) (P22460 whole entry): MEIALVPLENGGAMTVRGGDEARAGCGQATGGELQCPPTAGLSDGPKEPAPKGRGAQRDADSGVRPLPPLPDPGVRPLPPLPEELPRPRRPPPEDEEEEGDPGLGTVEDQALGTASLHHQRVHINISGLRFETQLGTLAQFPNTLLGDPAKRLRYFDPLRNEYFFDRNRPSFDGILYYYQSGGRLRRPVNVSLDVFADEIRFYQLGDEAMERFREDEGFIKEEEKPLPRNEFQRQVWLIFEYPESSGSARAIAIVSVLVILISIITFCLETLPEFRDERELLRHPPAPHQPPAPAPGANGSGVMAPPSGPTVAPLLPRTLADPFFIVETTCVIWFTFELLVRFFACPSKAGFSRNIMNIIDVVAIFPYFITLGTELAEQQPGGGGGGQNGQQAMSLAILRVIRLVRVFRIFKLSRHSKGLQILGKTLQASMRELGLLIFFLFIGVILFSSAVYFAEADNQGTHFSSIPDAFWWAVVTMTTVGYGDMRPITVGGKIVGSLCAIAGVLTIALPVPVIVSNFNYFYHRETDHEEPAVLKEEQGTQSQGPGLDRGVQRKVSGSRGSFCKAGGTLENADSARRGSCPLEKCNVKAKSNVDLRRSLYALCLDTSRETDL

Compound	IC50 [1] [nM]	logD [2]	ED100 (Ovis aries [3]) [mg/kg]	further results
CCn1c(CNC(=O)c2nc3cc[nH]c3nc2N)[n+](CC)c2ccc(OCCCN(C[C@H](O)[C@@H](O)[C@H](O)[C@H](O)CO)C[C@H](O)[C@@H](O)[C@H](O)[C@H](O)CO)cc21.O=C(O)C(F)(F)F.O=C([O-])C(F)(F)F	22	1	0.019	
CCn1c(CNC(=O)c2nc3cc[nH]c3nc2N)[n+](CC)c2ccc(C(=O)N3CCC(N)CC3)cc21.Cl.[I-]	11	0.6	0.025	Activity (Ovis aries [4]): Active
CCn1c(CNC(=O)c2nc3cc[nH]c3nc2N)[n+](CC)c2ccc(C(=O)NC3CCNCC3)cc21	7.2			
CCn1c(CNC(=O)c2nc3cc[nH]c3nc2N)[n+](CC)c2ccc(OCCN(C[C@H](O)[C@@H](O)[C@H](O)[C@H](O)CO)C[C@H](O)[C@@H](O)[C@H](O)[C@H](O)CO)cc21	51			
CCn1c(CNC(=O)c2nc3cc[nH]c3nc2N)[n+](CC)c2ccc(OCCN)cc21	14	1		
CCn1c(CNC(=O)c2nc3ccn(C)c3nc2N)[n+](C)c2ccc(OC)cc21	> 7700	0.8		
CCn1c(CNC(=O)c2nc(C)cnc2N)[n+](C)c2ccc(OC)cc21	4	< 1		
CCn1c(CNC(=O)c2nc3cc[nH]c3nc2N)[n+](CC)c2ccc(C(=O)N3CCC(N(C[C@H](O)[C@@H](O)[C@H](O)[C@H](O)CO)C[C@H](O)[C@@H](O)[C@H](O)[C@H](O)CO)CC3)cc21.O=C(O)C(F)(F)F.O=C([O-])C(F)(F)F	57	2.8	0.009	fraction unbound [5]: 0.9; inhibition (INH) [6]: Not_active; fraction unbound [7]: 0.9; Drug uptake [8]: 13%; fold change (FC) [9]: 3; inhibition (INH) [10]: Not_active; Activity [11]: Non-toxic; inhibition (INH) [12]: Not_active; inhibition (INH) (Cytochrome P450): Not_active; fraction unbound [13]: 0.9; inhibition [14]: inactive
CCn1c(CNC(=O)c2nc3cc[nH]c3nc2N)[n+](C)c2ccc(OC)cc21.O=C[O-]	7.7	1	0.158	Drug uptake [15]: Active; fold change (FC) [9]: 50; Activity (Ovis aries [4]): Active
CCn1c(CNC(=O)c2nc(Cl)cnc2N)[n+](C)c2ccc(OC)cc21	2	0.9		
CCn1c(CNC(=O)c2nc3cc[nH]c3nc2N)[n+](CC)c2ccc(OCCNC(=N)N)cc21	2.5			
CCn1c(CNC(=O)c2nc3cc[nH]c3nc2N)[n+](CC)c2ccc(C(=O)NCCN3CCC(N)CC3)cc21	10			
CCn1c(CNC(=O)c2nc(Br)cnc2N)[n+](C)c2ccc(OC)cc21.[I-]	3	0.8	> 0.101	Drug uptake [15]: Not_active; fold change (FC) [9]: 200
CCn1c(CNC(=O)c2nc3cc[nH]c3nc2N)[n+](CC)c2ccc(C(=O)NCCCN(C[C@H](O)[C@@H](O)[C@H](O)[C@H](O)CO)C[C@H](O)[C@@H](O)[C@H](O)[C@H](O)CO)cc21.O=C(O)C(F)(F)F.O=C([O-])C(F)(F)F	18	1	0.026	
CCn1c(CNC(=O)c2nc3cc[nH]c3nc2N)[n+](CC)c2ccc(OCCCN)cc21	7	1.5		
CCn1c(CNC(=O)c2nc3cc[nH]c3nc2N)[n+](CC)c2ccc(C(=O)NC3CCN(C[C@H](O)[C@@H](O)[C@H](O)[C@H](O)CO)CC3)cc21.O=C(O)C(F)(F)F.O=C([O-])C(F)(F)F	7.1	1	0.031	
CCc1cnc(N)c(C(=O)NCc2n(CC)c3cc(OC)ccc3[n+]2C)n1	224	0.9		
CCn1c(CNC(=O)c2nc3cc[nH]c3nc2N)[n+](CC)c2ccc(OC)cc21	2.5	0.9		
CCn1c(CNC(=O)c2nc3cc[nH]c3nc2N)[n+](CC)c2ccc(C(=O)NCCCN)cc21	15	0		
CCn1c(CNC(=O)c2nc3cc[nH]c3nc2N)[n+](CC)c2ccc(C(=O)NCCN3CCC(N(C[C@H](O)[C@@H](O)[C@H](O)[C@H](O)CO)C[C@H](O)[C@@H](O)[C@H](O)[C@H](O)CO)CC3)cc21.O=C(O)C(F)(F)F.O=C([O-])C(F)(F)F	38		0.025	
